According to patent publication US20240307393A1, “PHARMACEUTICAL COMPOSITION FOR CANCER PREVENTION OR TREATMENT, COMPRISING CDK4/6 INHIBITOR AND TRICYCLIC ANTIDEPRESSANT” (priority 2021, published 2024):

Legend:
[1] = system: lung cancer cell line H460; assay: WST-1 cancer cell killing (cell survival) test in lung cancer cell line H460; format: cell-based; conditions: 48 hours; for Cell survival rate (%) Combined treatment with abemaciclib: antidepressant at Table 1 concentration combined with 4 μM abemaciclib; for Cell survival rate (%) Combined treatment with palbociclib: antidepressant at Table 1 concentration combined with 15 μM palbociclib; for Cell survival rate (%) Combined treatment with ribociclib: antidepressant at Table 1 concentration combined with 50 μM ribociclib; for Cell survival rate (%) Treatment with antidepressants alone: imipramine 100, clomipramine 40, desipramine 50, amitriptyline 45, imipramine blue 0.5 μM (Table 1)
Procedure: (§2) This experiment was conducted on the lung cancer cell line H460, the colorectal cancer cell line HCT116, and the breast cancer cell line MCF7. […] The cell lines H460 and MCF7 were cultured using RPMI1640 medium containing 10% FBS and 1% penicillin-streptomycin, and the cell line HCT116 was cultured using McCoy's 5A medium containing 10% FBS and 1% penicillin-streptomycin.
(§3) The cell lines H460, HCT116 and MCF7 were cultured at 3×10^3 cells/well in a 96 well plate. The next day, each drug was prepared at the concentrations shown in Tables 1 and 2, mixed with the medium, and then added to each well and left for 48 hours. After 48 hours, 10 ul/well of WST-1 reagent was added thereto and reacted for 1 hour. Samples reacted with WST-1 were analyzed by ELISA at 450 nM, and the same conditions were repeated three times to calculate the average value and standard error.

[2] = system: colorectal cancer cell line HCT116; assay: WST-1 cancer cell killing (cell survival) test in colorectal cancer cell line HCT116; format: cell-based, human; conditions: 48 hours; for Cell survival rate (%) Combined treatment with abemaciclib: antidepressant at Table 1 concentration combined with 0.2 μM abemaciclib; for Cell survival rate (%) Combined treatment with palbociclib: antidepressant at Table 1 concentration combined with 5 μM palbociclib; for Cell survival rate (%) Combined treatment with ribociclib: antidepressant at Table 1 concentration combined with 20 μM ribociclib; for Cell survival rate (%) Treatment with antidepressants alone: imipramine 100, clomipramine 40, desipramine 20, amitriptyline 25, imipramine blue 0.4 μM (Table 1)
Procedure: as §2, §3

[3] = system: breast cancer cell line MCF7; assay: WST-1 cancer cell killing (cell survival) test in breast cancer cell line MCF7; format: cell-based; conditions: 48 hours; for Cell survival rate (%) Combined treatment with abemaciclib: antidepressant at Table 1 concentration combined with 10 μM abemaciclib; for Cell survival rate (%) Combined treatment with palbociclib: antidepressant at Table 1 concentration combined with 20 μM palbociclib; for Cell survival rate (%) Combined treatment with ribociclib: antidepressant at Table 1 concentration combined with 30 μM ribociclib; for Cell survival rate (%) Treatment with antidepressants alone: imipramine 50, clomipramine 20, desipramine 50, amitriptyline 50, imipramine blue 0.1 μM (Table 1)
Procedure: This experiment was conducted on the lung cancer cell line H460, the colorectal cancer cell line HCT116, and the breast cancer cell line MCF7. As for the genetic characteristics of each cell line, the lung cancer cell line H460 has a KRAS mutation [p.Q61H], the colorectal cancer cell line HCT116 has a KRAS mutation [p.G13D], and the breast cancer cell line MCF7 has the characteristic of being positive for estrogen receptor and progesterone receptor but negative for HER2. The cell lines H460 and MCF7 were cultured using RPMI1640 medium containing 10% FBS and 1% penicillin-streptomycin, and the cell line HCT116 was cultured using McCoy's 5A medium containing 10% FBS and 1% penicillin-streptomycin.
Specifically, abemaciclib, ribociclib and palbociclib were used as CDK4/6 inhibitors, and DMSO was used as a solvent to prepare the drug stock. […] Each drug was used after diluting to the concentrations shown in Table 1 (antidepressant concentration used (μM)) and Table 2 (CDK4/6 inhibitor concentration used (μM)) below.
The cell lines H460, HCT116 and MCF7 were cultured at 3×10^3 cells/well in a 96 well plate. The next day, each drug was prepared at the concentrations shown in Tables 1 and 2, mixed with the medium, and then added to each well and left for 48 hours. After 48 hours, 10 ul/well of WST-1 reagent was added thereto and reacted for 1 hour. Samples reacted with WST-1 were analyzed by ELISA at […], and the same conditions were repeated three times to calculate the average value and standard error.

[4] = system: colorectal cancer cell line HCT116 subcutaneous tumor; assay: Tumor growth inhibition in HCT116 subcutaneous tumor model; format: in vivo, nude mice (Balb/c nude); set-up: reference not given here; conditions: HCT116 subcutaneous tumor in nude mice, desipramine 20 mg/kg intraperitoneally, abemaciclib 30 mg/kg orally, once a day
Procedure: To evaluate the anti-tumor effect, the tumor size was measured every day until day 14 after treatment, and the differences between each group were analyzed. The tumor size was calculated as follows: V (mm^3)=1/2×long axis (mm)×short axis (mm)×height (mm). By day 14, the tumor size was measured, a tumor growth graph was created, and the tumor size between each group was compared and analyzed.

[5] = Toxicity evaluation: hematoxylin and eosin histology of major normal organs; format: in vivo, nude mice (Balb/c nude); conditions: day 14; hematoxylin and eosin staining; desipramine 20 mg/kg intraperitoneally, abemaciclib 30 mg/kg orally, once a day
Procedure: (§1) Specifically, the human colorectal cancer cell line HCT116 was purchased from the American Type Culture Collection (ATCC, USA) and cultured in McCoy's 5A medium containing 10% fetal bovine serum (FBS) and penicillin-streptomycin under conditions of 37° C., 5% carbon dioxide and standard humidity.

[6] = Toxicity evaluation: body weight for 14 days; format: in vivo, nude mice (Balb/c nude); conditions: measured for 14 days; desipramine 20 mg/kg intraperitoneally, abemaciclib 30 mg/kg orally, once a day
Procedure: as §1

SMILES	Cell survival rate (%) Combined treatment with abemaciclib [1] [%]	Cell survival rate (%) Combined treatment with palbociclib [1] [%]	Cell survival rate (%) Combined treatment with ribociclib [1] [%]	Cell survival rate (%) Treatment with antidepressants alone [1] [%]	Cell survival rate (%) Combined treatment with abemaciclib [2] [%]	Cell survival rate (%) Combined treatment with palbociclib [2] [%]	Cell survival rate (%) Combined treatment with ribociclib [2] [%]	Cell survival rate (%) Treatment with antidepressants alone [2] [%]	Cell survival rate (%) Combined treatment with abemaciclib [3] [%]	Cell survival rate (%) Combined treatment with palbociclib [3] [%]	Cell survival rate (%) Combined treatment with ribociclib [3] [%]	Cell survival rate (%) Treatment with antidepressants alone [3] [%]	other results
CN(C)CCC=C1c2ccccc2CCc2ccccc21 [Amitriptyline]	50	58	32	65	64	54	46	86	21	45	28	63	
CN(C)CCCN1c2ccccc2CCc2ccc(Cl)cc21 [Clomipramine]	20	33	34	65	32	34	23	65	37	43	56	81	
CNCCCN1c2ccccc2CCc2ccccc21 [Desipramine]	24	14	16	40	28	44	29	71				60	tumor size on day 14 [4]: 75.2%; histological changes of major organs (heart, lung, liver, spleen, kidney) compared to the control group [5]: no histological changes; body weight difference between groups [6]: no significant difference in body weight
CCN(CC)c1ccc(C(c2ccc(N(CC)CC)cc2)=c2ccc3c(c2)CCc2ccccc2[N+]=3CCCN(C)C)cc1 [Imipramine blue]	50	36	36	62	39	43	31	53	43	59	60	88	
CN(C)CCCN1c2ccccc2CCc2ccccc21 [Imipramine]	20	53	47		58	41	39		34	53	55		
CCN1CCN(Cc2ccc(Nc3ncc(F)c(-c4cc(F)c5nc(C)n(C(C)C)c5c4)n3)nc2)CC1 [abemaciclib]													lung cancer cell survival rate, abemaciclib alone ([1]; 4 μM abemaciclib alone, WST-1): 71%; colorectal cancer cell survival rate, abemaciclib alone ([2]; 0.2 μM abemaciclib alone, WST-1): 87%; breast cancer cell survival rate, abemaciclib alone ([3]; 10 μM abemaciclib alone, WST-1): 59%; tumor size on day 14 [4]: 54.6%; histological changes of major organs (heart, lung, liver, spleen, kidney) compared to the control group [5]: no histological changes; body weight difference between groups [6]: no significant difference in body weight
CC(=O)c1c(C)c2cnc(Nc3ccc(N4CCNCC4)cn3)nc2n(C2CCCC2)c1=O [palbociclib]													lung cancer cell survival rate, palbociclib alone ([1]; 15 μM palbociclib alone, WST-1): 67%; colorectal cancer cell survival rate, palbociclib alone (HCT116 section) ([2]; 5 μM palbociclib alone, WST-1): 79%; breast cancer cell survival rate, palbociclib alone ([3]; 20 μM palbociclib alone, WST-1): 75%
CN(C)C(=O)c1cc2cnc(Nc3ccc(N4CCNCC4)cn3)nc2n1C1CCCC1 [ribociclib]													lung cancer cell survival rate, ribociclib alone ([1]; 50 μM ribociclib alone, WST-1): 72%; colorectal cancer cell survival rate, ribociclib alone ([2]; 20 μM ribociclib alone, WST-1): 73%; breast cancer cell survival rate, ribociclib alone ([3]; 30 μM ribociclib alone, WST-1): 80%
